Where no end group is shown, it is not given here.

The source of these data is patent US8541002B2, “Vaccine for treatment and prevention of herpes simplex virus infection” (Agenus Inc., priority 2003, dated 2013).

The data set in a line: Turbidity assay for solubility of the peptides. In kind it is physicochemical. As to conditions: solubility of the antigenic peptides in water or Dimethyl Sulfoxide (DMSO). As to the method:
A number of antigenic peptides of the invention were synthesized by chemical synthesis as described in Section 5.1.1.
A turbidity assay was used to assess the solubility of the peptides. Turbidity assays used either a Varian Cary double-beam spectrophotometer, or a Molecular Devices Spectromax absorbance plate reader (for high throughput experiments). The spectrophotometer assay read every 2 nm between 340 nm and 360 nm, and averaged the values. Samples were analyzed in duplicate using a quartz micro-cuvette that holds about 200 uL. The plate reader assay used a 96-well plate format that read every 4 nm between 340 nm and 360 nm and averaged those values. Samples in this assay were run in triplicate.
`CC[C@H](C)[C@H](NC(=O)[C@@H]1CCCN1C(=O)[C@H](CC(C)C)NC(=O)[C@H](Cc1ccc(O)cc1)NC(=O)[C@@H](N)CCCNC(=N)N)C(=O)N[C@@H](C)C(=O)NCC(=O)N[C@H](C(=O)N[C@@H](CO)C(=O)N[C@@H](CO)C(=O)N[C@H](C(=O)N[C@H](C(=O)N[C@@H](C)C(=O)N[C@@H](CC(C)C)C(=O)N[C@@H](C)C(=O)N1CCC[C@H]1C(=O)N[C@@H](Cc1ccc(O)cc1)C(=O)N[C@H](C(=O)N[C@@H](CC(N)=O)C(=O)N[C@@H](CCCCN)C(=O)N[C@H](C(=O)N[C@H](C(=O)N[C@H](C(=O)NCC(=O)N[C@@H](CC(=O)O)C(=O)N[C@@H](CS)C(=O)N[C@@H](CC(C)C)C(=O)N1CCC[C@H]1C(=O)N[C@H](C(=O)N[C@@H](CC(C)C)C(=O)N[C@@H](CC(=O)O)C(=O)N[C@@H](CCSC)C(=O)N[C@@H](CCC(=O)O)C(=O)N[C@H](C(=O)NCC(=O)O)[C@@H](C)O)C(C)C)[C@@H](C)O)C(C)C)[C@@H](C)O)C(C)C)C(C)C)C(C)C)C(C)C` [RL02-2]: the Solubility result is “DMSO”.
As to `CC[C@H](C)[C@H](NC(=O)[C@@H](NC(=O)[C@@H]1CCCN1C(=O)[C@@H](N)CC(=O)O)[C@@H](C)CC)C(=O)NCC(=O)N[C@H](C(=O)N[C@@H](C)C(=O)N[C@@H](C)C(=O)N[C@@H](C)C(=O)N[C@H](C(=O)N[C@@H](CC(C)C)C(=O)N[C@@H](CCC(=O)O)C(=O)N[C@@H](CC(N)=O)C(=O)N[C@@H](CC(C)C)C(=O)N[C@@H](C)C(=O)N[C@H](C(=O)N[C@@H](CCCNC(=N)N)C(=O)N[C@@H](CC(C)C)C(=O)N[C@@H](CCCNC(=N)N)C(=O)N1CCC[C@H]1C(=O)N[C@@H](Cc1ccccc1)C(=O)N[C@@H](CC(C)C)C(=O)N[C@@H](CCC(N)=O)C(=O)N[C@@H](CS)C(=O)N[C@@H](Cc1ccc(O)cc1)C(=O)N[C@@H](CC(C)C)C(=O)N[C@@H](CCCCN)C(=O)N[C@@H](C)C(=O)N[C@@H](CCCNC(=N)N)C(=O)NCC(=O)N[C@@H](CC(C)C)C(=O)N[C@@H](CS)C(=O)NCC(=O)N[C@@H](CC(C)C)C(=O)N[C@@H](CC(=O)O)C(=O)O)[C@@H](C)O)C(C)C)[C@@H](C)O` [UL54-1], the Solubility entry is “water”.
Take `CC[C@H](C)[C@H](NC(=O)[C@@H](NC(=O)[C@H](CC(=O)O)NC(=O)[C@H](CCCNC(=N)N)NC(=O)[C@H](C)N)C(C)C)C(=O)N[C@@H](CCCNC(=N)N)C(=O)N[C@@H](CCC(=O)O)C(=O)N[C@H](C(=O)N[C@@H](CC(=O)O)C(=O)N[C@@H](C)C(=O)N[C@@H](Cc1ccccc1)C(=O)N[C@@H](Cc1ccc(O)cc1)C(=O)NCC(=O)N[C@@H](CC(=O)O)C(=O)N[C@@H](CC(C)C)C(=O)N[C@@H](C)C(=O)N[C@@H](CC(=O)O)C(=O)N[C@@H](CC(C)C)C(=O)N[C@@H](CC(=O)O)C(=O)N[C@@H](CC(C)C)C(=O)N[C@@H](CCC(N)=O)C(=O)N[C@@H](CC(C)C)C(=O)N[C@@H](CCCNC(=N)N)C(=O)N[C@@H](C)C(=O)N[C@@H](C)C(=O)N1CCC[C@H]1C(=O)N1CCC[C@H]1C(=O)N[C@@H](C)C(=O)N[C@@H](CC(N)=O)C(=O)N[C@@H](CC(C)C)C(=O)N[C@@H](Cc1ccc(O)cc1)C(=O)N[C@@H](C)C(=O)N[C@@H](CCCNC(=N)N)C(=O)N[C@@H](CC(C)C)C(=O)NCC(=O)O)[C@@H](C)O` [UL36-4]: the Solubility result is listed as “DMSO”.
For the molecule “SSDVPSVALLLFPNGTVIHLLAFDTLPIATIAPGF [UL22-3]”, the Solubility entry is listed as “DMSO”.
For the molecule `CSCC[C@H](NC(=O)[C@H](C)N)C(=O)N[C@@H](CO)C(=O)N[C@@H](CCCNC(=N)N)C(=O)N[C@@H](CCCNC(=N)N)C(=O)N[C@@H](Cc1ccc(O)cc1)C(=O)N[C@@H](CC(=O)O)C(=O)N[C@@H](CCCNC(=N)N)C(=O)N[C@@H](C)C(=O)N[C@@H](CCC(N)=O)C(=O)N[C@@H](CCCCN)C(=O)NCC(=O)N[C@@H](Cc1ccccc1)C(=O)N[C@@H](CC(C)C)C(=O)N[C@@H](CC(C)C)C(=O)N[C@H](C(=O)N[C@@H](CO)C(=O)N[C@@H](CC(C)C)C(=O)N[C@@H](CCCNC(=N)N)C(=O)N[C@@H](CCCNC(=N)N)C(=O)N[C@@H](C)C(=O)N[C@@H](Cc1ccc(O)cc1)C(=O)N[C@@H](C)C(=O)N1CCC[C@H]1C(=O)N[C@@H](CC(C)C)C(=O)N[C@@H](CC(C)C)C(=O)N[C@@H](C)C(=O)N[C@@H](CCCNC(=N)N)C(=O)N[C@@H](CCC(=O)O)C(=O)N[C@@H](CC(N)=O)C(=O)N[C@@H](C)C(=O)N[C@@H](C)C(=O)N[C@@H](CC(C)C)C(=O)N[C@H](C(=O)NCC(=O)O)[C@@H](C)O)[C@@H](C)O` [RS01-2], the Solubility result is given as “water”.
Consider “TQDTACVHGELLARKRERFAAVINRFLDLHQILRG [UL33-2]”, for which the Solubility result is “water”.
Turning to `CC(C)C[C@H](NC(=O)[C@H](C)NC(=O)[C@H](CCCNC(=N)N)NC(=O)[C@@H](NC(=O)[C@@H](NC(=O)[C@H](Cc1c[nH]cn1)NC(=O)CNC(=O)CNC(=O)[C@H](CC(C)C)NC(=O)[C@H](CO)NC(=O)[C@H](CC(C)C)NC(=O)[C@H](CO)NC(=O)[C@H](CCCNC(=N)N)NC(=O)[C@@H]1CCCN1C(=O)[C@H](C)NC(=O)[C@@H](NC(=O)[C@H](CCCNC(=N)N)NC(=O)[C@@H]1CCCN1C(=O)[C@H](CC(N)=O)NC(=O)CN)[C@@H](C)O)[C@@H](C)O)C(C)C)C(=O)N[C@@H](CO)C(=O)N1CCC[C@H]1C(=O)N[C@H](C(=O)N1CCC[C@H]1C(=O)N1CCC[C@H]1C(=O)N[C@@H](Cc1c[nH]c2ccccc12)C(=O)N1CCC[C@H]1C(=O)NCC(=O)N[C@H](C(=O)N[C@@H](CC(=O)O)C(=O)N[C@@H](CC(=O)O)C(=O)N[C@@H](CCC(=O)O)C(=O)N[C@@H](CC(=O)O)C(=O)N[C@@H](CC(=O)O)C(=O)N[C@@H](CC(=O)O)C(=O)O)[C@@H](C)O)[C@@H](C)O` [RL02-1], the Solubility result was “water”.
In the case of “ILSPGALAAIENYVRFSADRLLGLIHMQPLYSAPA [UL40-2]”, the Solubility entry is on record as “water”.
In the case of “LSGIAVRLCYIAVVAGVVLVALRYEQEIQRRLFDL [UL53-2]”, the Solubility result is given as “DMSO”.
Consider “SRLPPHTQPVFSKRVVMFAWSFLVLKPLELVAAGM [UL20-1]”, for which the Solubility result is listed as “water”.
On to “ASSQSKPLATQPPVLALSNAPPRRVSPTRGRRRHT [UL01-3]”, for which the Solubility entry is “water”.
Take `CSCC[C@H](NC(=O)[C@H](CC(C)C)NC(=O)[C@H](Cc1ccccc1)NC(=O)CNC(=O)[C@H](CC(C)C)NC(=O)[C@H](CC(N)=O)NC(=O)[C@H](CC(=O)O)NC(=O)[C@H](CCC(=O)O)NC(=O)[C@H](CO)NC(=O)[C@@H](NC(=O)[C@H](C)NC(=O)[C@H](CO)NC(=O)[C@H](Cc1ccccc1)NC(=O)[C@H](CO)NC(=O)[C@H](CC(=O)O)NC(=O)[C@H](Cc1ccc(O)cc1)NC(=O)[C@H](Cc1ccc(O)cc1)NC(=O)[C@H](CO)NC(=O)[C@H](Cc1c[nH]c2ccccc12)NC(=O)[C@@H](N)CCCNC(=N)N)C(C)C)C(=O)N[C@@H](Cc1c[nH]cn1)C(=O)N[C@@H](C)C(=O)N1CCC[C@H]1C(=O)N[C@@H](C)C(=O)N[C@@H](Cc1ccccc1)C(=O)N[C@@H](CCC(=O)O)C(=O)N[C@H](C(=O)N[C@@H](C)C(=O)NCC(=O)N[C@H](C(=O)N[C@@H](Cc1ccc(O)cc1)C(=O)N[C@@H](CC(C)C)C(=O)N[C@@H](CCCNC(=N)N)C(=O)N[C@@H](CC(C)C)C(=O)N[C@H](C(=O)O)C(C)C)[C@@H](C)O)[C@@H](C)O` [US06-1]: the Solubility result was “DMSO”.
